# Reference: PMC8280143, “A novel dephosphorylation targeting chimera selectively promoting tau removal in tauopathies” (Signal Transduction and Targeted Therapy, 2021)
# Entries after “also recorded” stand apart in the source; their conditions may differ.
# Columns and labels:
# [1] = system: microtubules in neurites of hippocampal neurons of Tau368 mice; experiment: Electron microscopy of microtubule bundles; assay type: in vivo, mouse; settings: dox 2 months
# Protocol: For 2-month male C57BL/6 mice, 10 mM FITC-labeled or unlabeled-DEPTAC were directly injected through the tail vein or lateral ventricle for the evaluation of BBB-penetrability. For 9-month 3×Tg AD mice or Tau368 (20–30 g body weight), unlabeled-DEPTAC (5 mM, 1 μL for each time) was delivered for once into the lateral ventricle through direct stereotaxic injection, or repeatedly administrated through guiding cannulas (RWD, Shenzhen, China) implanted into the lateral ventricle once every 3 days for a consecutive month to test its dephosphorylation efficiency. Mice were restricted in a custom designed device and stayed awake during drug administration, and sacrificed at 24 h post the single or last DEPTAC administration.
# Mice were killed by overdose 1% pentobarbital sodium. Hippocampal tissues were isolated on ice, fixed in 2.5% glutaraldehyde at 4 °C for 24 h, washed in 0.1 M phosphate buffer, and post-fixed in 1% osmium acid for 2 h. After washed with phosphate buffer, tissues were dehydrated in increasing gradient of ethanol (30–100%), and incubated in turn with acetone/epoxy (2:1), acetone/epoxy (1:1) and epoxy for 12 h each at 37 °C. Tissues were subsequently embedded in epoxy at 37 °C for 48 h. Sections of 100 nm were sliced using a ultramicrotome (EM UC7, Leica), and stained in a buffer containing 2% uranium acetate and lead citrate at room temperature for 15 min. Images were taken by a transmission electron microscope (Tecnai G^2 20 TWIN, FEI). Bundles density and length were analyzed using ImageJ.
# tau = experiment: Tau Ser/Thr phosphorylation and ubiquitination in the presence of MG132; assay type: cell-based, rat
# Protocol: Primary hippocampal neurons were prepared from E12–E15 days SD rat embryos. Briefly, pregnant rats were acutely executed, hippocampus was dissected on ice and gently minced in DME/F12 (Hyclone) then suspended in 0.125% (vol/vol) trypsin solution at 37 °C for 20 min. Enzymatic activity was stopped by fetal bovine serum. Neurons were initially kept in 10% FBS-containing DME/F12 for 4–6 h, and subsequently cultured in Neurobasal (Hyclone) with 2% B27, 1% glutamax and 1% penicillin–streptomycin (Thermo Fisher Scientific) in dishes pre-coated with 100 μg/mL poly-D-lysine. Serum was gradually removed by replacing half of the medium for each time within the following 2 days. […]
# Cultured cells or hippocampus tissues were collected on ice, and homogenized with RIPA lysis buffer containing 50 mM Tris-HCl, 100 mM NaCl, 1% Triton X-100, 5 mM EDTA, and 1:100 PMSF, and then centrifuged at 12,000 × g for 20 min. […] Protein concentration was measured through BCA assays (Thermo Fisher). […] Blots were visualized using ECL luminol reagent (P0018FS, Beyotime), and quantified using ImageJ software.
# For co-immunoprecipitation, cultured cells were lysed on ice with RIPA buffer for 10 min containing 1:100 PMSF. […] Immunoprecipitants were subsequently analyzed through Western blotting.
# [2] = system: human tau N-terminal 1–368 fragment (hTau-N368); experiment: Hippocampal phosphorylated and total tau in dox-treated Tau368 mice; assay type: in vivo, mouse; settings: 5 mM, i.c.v.
# Tau368 mice = experiment: Object-place recognition test; assay type: in vivo, mouse
# Protocol: Mice were repeatedly handled during DEPTAC administration before behavioral tests. For object-place recognition in the […], mice were placed in a box (50 × 50 × 50 cm) marked with a visual cue on the wall, and two identical objects (plastic toys) were placed at the two different corners. Each mouse was allowed to freely explore for 5 min, and then removed from the box for 2 min, during which the box and the objects were cleaned with 75% ethanol. Pseudorandomly, one of the two objects (object B) was moved to a new corner while the other object (object A) remained unmoved. In the test phase, mice were allowed to freely explore in the box for another 5 min. Videos were recorded and analyzed online using an ANY-maze video tracking system (Stoelting). The time mice stayed around each object was counted as exploring; and the preference ratio was calculated as the exploring time (B − A) / (B + A).
# [3] = then 1-month DEPTAC, *p < 0.05, n = 5 mice, 12–23 view fields
substance,measurement,setting,value
"(1) YQQYQDATADEQG, originates from the porcine β-tubulin 422–434 for recognizing and binding tau proteins.[5],[6] (2) GSGS, a linker for increasing the flexibility of the peptide.[15] (3) KKVAVVRTPPKSP, for recruiting PP2A-Bα,[16] and (4) RRRRRRRR [DEPTAC, DEPhosphorylation TArgeting Chimera; 38 amino acid residues, C185H314N72O56]",density of microtubule bundles,[1]; [3],significantly reversed
same,length of microtubule bundles,[1]; [3],significantly reversed
same,microtubule disassembly in morphology,[1]; then DEPTAC for a consecutive month,efficiently reversed
same,tau phosphorylation at Ser/Thr residues,tau,downregulation; also recorded: decreased
same,tau ubiquitination,tau,upregulation; also recorded: upregulated
same,time post injection of tau reduction,[2],12 to 72 h
same,hippocampal total tau,"[2]; for a consecutive month / for once, 12–72 h post injection, n = 3–4",effective in reducing; also recorded: reduced phosphorylated and total tau prominently
same,object-place recognition in control mice,Tau368 mice; Tau368 mice treated with NW,only limitedly affected
same,object-place recognition impairment,"Tau368 mice; dox-treated Tau368 mice, 1-month DEPTAC after stopping dox, *p < 0.05, n = 10–15 mice",remarkably ameliorated; also recorded: rescued
